The values that follow come from US20140259191A1, “FISH ANESTHETIC AND METHOD” (AQUA-MOR TECHNOLOGIES LTD., priority 2011, published 2014).

One data set relates to Ramirez fish. The data set is described as follows: Anesthesia of Ramirez fish by linalool or Ho Wood oil added to tank water. The class given is in vivo. The protocol: (§1) A one year old koi fish of body length 11 cm and which appeared to be healthy was placed in a 4 liter tank containing water at 25° C. and in which the water was circulated by means of aeration. A liquid a mixture containing 1 wt. % synthetic linalool (1 wt. % linalool, 5 wt. % 14R, 2 wt. % AF80 and 92 wt. % water) was added to the tank and manually mixed with the water so that the concentration of linalool in the water was 50 ppm. This was regarding as the starting time of the experiment; thereafter, observations were made regularly to determine the behavior of the fish in water. This continued until no response to external stimulation and complete loss of equilibrium were observed, at which point the fish was transferred to a recovery tank containing fresh water. The fish was placed near the air pump, and the time until the fish again swam and responded normally to external stimulation was recorded.
This experiment repeated the experiment of Example 1, using three goldfish (Carassius auratus auratus, average body length 12.5 cm) and five Ramirez fish (Mikrogeophagus ramirezi, body length 3.5-4 cm). All fishes appeared to be healthy. The goldfish tank held 4 liters of water and the tank holding the Ramirez fish one liter.
The experiment of example 9 was repeated, this time using five nine-month old Ramirez fish (M. ramirezi) in a one-liter tank. The respective weights were 0.8 g, 0.75 g, 0.7 g, 0.85 g and 0.75 g and the respective body lengths were 3.5 cm, 3.5 cm, 3 cm, 4 cm and 3 cm. The water temperature was 26° C. and the pH was 7. The fish became relaxed 2 minutes after addition of linalool, and after 5 minutes the fish were completely anesthetized. After 10 minutes the fish were removed to a recovery tank with fresh water. After 5 minutes in the recovery tank the fish had resumed normal behavior.
The experiment of Example 21 was repeated, using four one-year old Ramirez fish of respective body lengths 3, 2.5, 3 and 3.5 cm, and adding the Ho Wood oil to a linalool concentration of 50 ppm in the water. […] At 2.5 minutes the fish were removed to a recovery tank with clean water. After 7 minutes in the recovery tank they swam around and appeared to have resumed normal activity.
The experiment of Example 21 was repeated, using four 1-year old Ramirez fish of respective body lengths 3, 3.5, 3.5 and 4 cm, and adding the Ho Wood oil to a linalool concentration in the water of 75 ppm instead 50 ppm. […] At 1.5 minutes the fish were removed to a recovery tank with clean water. After 7 minutes in the recovery tank the fish swam around and appeared to have resumed normal activity.

For a further data set, the system named is catfish. The data set is described as follows: Anesthesia of catfish by linalool added to tank water. It counts as in vivo, Clarias gariepinus. The settings on record: 100 ppm linalool. The protocol: To a four liter tank containing […] 10-month old catfish (Clarias gariepinus) of respective weights 31 g, 14 g, 24 g and 9 g and respective body lengths 17 cm, 13 cm, 16 cm and 10 cm in water at 31° C. and pH 7 was added a formulation containing 1% linalool. The formulation was added to the water to a linalool concentration of 100 ppm in the water. The fish became relaxed 2 5 minutes after addition of linalool and after 4 minutes were completely anesthetized. At 5.5 minutes the fish were removed to a recovery tank with fresh water. After 7 minutes in the recovery tank the fish resumed normal behavior.

A further data set concerns Koi fish. The data set is described as follows: Anesthesia of Koi fish by linalool added to tank water. It counts as in vivo. The protocol: as §1
The experiment of Example 1 was repeated, using a one year old Koi fish of 12 cm body length, and adding the linalool formulation to a linalool concentration in the water of 75 ppm instead of 50 ppm. After 2 minutes of exposure to linalool the fish appeared to be in slight stress. […] At 20 minutes the fish was removed to a recovery tank with clean water. Thereafter it recovered slowly and after 40 minutes was swimming around in the tank and appeared to have resumed normal activity.
The experiment of Example 1 was repeated, using a one year old Koi fish of 12.5 cm body length, and adding the linalool formulation to a linalool concentration in the water of 100 ppm instead of 50 ppm. […] At 6 minutes the fish was removed to a recovery tank with clean water. Thereafter it recovered slowly and after 30 minutes was swimming around in the tank and appeared to have resumed normal activity.
To a four liter tank containing three one-year old Koi fish of respective weights 30 g, 29 g and 31 g and respective body lengths 11 cm, 12 cm and 12.5 cm in water at 21° C. and pH 7 was added a formulation containing 1% linalool. The formulation was added to the water to a linalool concentration of 50 ppm in the water. The fish became relaxed 6 minutes after addition of linalool and after 9 minutes were completely anesthetized. At 9 5 minutes the fish were removed to a recovery tank with fresh water. After 40 minutes in the recovery tank the fish resumed normal behavior.

Where [1] appears, read: Example 12: five Ramirez fish 0.7-0.85 g, experiment of example 9 (50 ppm linalool), 26° C., pH 7.
Setting [2] is: Example 1: Koi 11 cm, 50 ppm linalool in water, 25° C.
The mark [3] stands for this setting: Example 2: Koi 12 cm, 75 ppm linalool in water.
Where [4] appears, read: Example 3: Koi 12.5 cm, 100 ppm linalool in water.
[5] abbreviates: Example 18: three Koi 29-31 g, 50 ppm linalool, 21° C., pH 7.

Take `C=CC(C)(O)CCC=C(C)C` (centres unmarked) [linalool]: in the data set with Ramirez fish (Example 7: five Ramirez fish 3.5-4 cm, experiment of Example 1 repeated), the “mortality during a further three days of observation” value is recorded as “no mortality occurred”. Besides, the “time in recovery tank until normal behavior resumed” value in the data set on Ramirez fish (Example 12: Ramirez fish, 26° C., removed after 10 minutes) was 5 min; with catfish (Example 19: catfish, removed at 5.5 minutes), 7 min; with Koi fish (Example 18: Koi, 50 ppm linalool, 21° C., removed at 9 5 minutes), 40 min. The “time after addition of linalool until fish became relaxed” value came to 2 min in the data set with Ramirez fish (setting [1]) and 6 min with Koi fish (setting [5]). Further, the “time until fish completely anesthetized” value worked out at 5 min with Ramirez fish (setting [1]); 4 min with catfish (Example 19: catfish 9-31 g, 31° C., pH 7); 9 min in the data set with Koi fish (setting [5]). Moreover, the “time of exposure until complete loss of equilibrium” value in the data set on Koi fish (setting [2]) amounted to 6.5 min; with Koi fish (setting [3]) it was 7 min; in the data set on Koi fish (setting [4]), 4 min. Moreover, in the data set with Koi fish (setting [2]), the “time of exposure until fish swam on its back” value worked out at 8 min. The “time of exposure until no response to external stimulation” value came out at 9 min with Koi fish (setting [2]), 9 min in the data set on Koi fish (setting [3]) and 5.5 min with Koi fish (setting [4]). For the same compound, the “time of exposure until partial loss of equilibrium” value is 5.5 min with Koi fish (setting [2]) and 2.5 min in the data set on Koi fish (setting [4]). The entries for the “time of exposure until slight stress” value with Koi fish (setting [2]) and in the data set on Koi fish (setting [3]) were 2.5 min and 2 min, respectively. Also, the “time in recovery tank until normal activity resumed” value in the data set on Koi fish (Example 1: Koi 11 cm, 50 ppm linalool, removed to clean water at 9.5 minutes) came out at 45 min; in the data set with Koi fish (Example 2: Koi 12 cm, 75 ppm linalool, removed to clean water at 20 minutes), 40 min; in the data set with Koi fish (Example 3: Koi 12.5 cm, 100 ppm linalool, removed to clean water at 6 minutes), 30 min.
